Key:
Experiment in all cases: relative viability (nuclei count vs DMSO), 5 days (fraction); higher = more cells survive
OSI-027 + Decitabine = compound: COc1cccc2cc(-c3nc([C@H]4CC[C@H](C(=O)O)CC4)n4ncnc(N)c34)[nH]c12 [OSI-027] + Nc1ncn([C@H]2C[C@H](O)[C@@H](CO)O2)c(=O)n1 [Decitabine] (partner 2 µM)
In short: (§1)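 Lung cancer cell lines in 1536-well plates were dosed by pin tool the day after seeding, either with one drug alone or with a fixed anchor-drug dose plus five library-drug doses (not always all listed) in √10 steps. After 5 days, cells were fixed and their nuclei stained in one step (final 0.05% Triton X-100, 1% formaldehyde, 1 ug/ml Hoechst), then counted on 4× images. Relative viability is the nuclei count in treated wells divided by that in vehicle wells. Values are medians of duplicate plates.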

Vemurafenib + Navitoclax = compound: CCCS(=O)(=O)Nc1ccc(F)c(C(=O)c2c[nH]c3ncc(-c4ccc(Cl)cc4)cc23)c1F [Vemurafenib] + CC1(C)CCC(c2ccc(Cl)cc2)=C(CN2CCN(c3ccc(C(=O)NS(=O)(=O)c4ccc(N[C@H](CCN5CCOCC5)CSc5ccccc5)c(S(=O)(=O)C(F)(F)F)c4)cc3)CC2)C1 [Navitoclax] (partner 0.5 µM)
In short: as §1

Alpelisib + Vorinostat = compound: Cc1nc(NC(=O)N2CCC[C@H]2C(N)=O)sc1-c1ccnc(C(C)(C)C(F)(F)F)c1 [Alpelisib] + O=C(CCCCCCC(=O)Nc1ccccc1)NO [Vorinostat] (partner 1 µM)
In short: as §1

Alpelisib + Bortezomib = compound: Cc1nc(NC(=O)N2CCC[C@H]2C(N)=O)sc1-c1ccnc(C(C)(C)C(F)(F)F)c1 [Alpelisib] + CC(C)C[C@H](NC(=O)[C@H](Cc1ccccc1)NC(=O)c1cnccn1)B(O)O [Bortezomib] (partner 0.002 µM)
In short: as §1

Cell Line: NCI-H596
- relative viability (OSI-027 + Decitabine; first compound 0.01 µM): 1.1
- relative viability (OSI-027 + Decitabine; first compound 0.03162 µM): 1.08
- relative viability (OSI-027 + Decitabine; first compound 0.1 µM): 1.1
- relative viability (OSI-027 + Decitabine; first compound 0.3162 µM): 1.03
- relative viability (OSI-027 + Decitabine; first compound 1 µM): 0.82
- relative viability (Vemurafenib + Navitoclax; first compound 0.03162 µM): 0.93
- relative viability (Vemurafenib + Navitoclax; first compound 0.1 µM): 0.728
- relative viability (Vemurafenib + Navitoclax; first compound 0.3162 µM): 1.04
- relative viability (Vemurafenib + Navitoclax; first compound 1 µM): 0.842
- relative viability (Alpelisib + Vorinostat; first compound 0.04 µM): 0.484
- relative viability (Alpelisib + Vorinostat; first compound 0.1265 µM): 0.837
- relative viability (Alpelisib + Vorinostat; first compound 0.4 µM): 0.629
- relative viability (Alpelisib + Vorinostat; first compound 1.265 µM): 0.328
- relative viability (Alpelisib + Vorinostat; first compound 4 µM): 0.267
- relative viability (Alpelisib + Bortezomib; first compound 0.04 µM): 1.17
- relative viability (Alpelisib + Bortezomib; first compound 0.1265 µM): 0.801
- relative viability (Alpelisib + Bortezomib; first compound 0.4 µM): 1.15
- relative viability (Alpelisib + Bortezomib; first compound 1.265 µM): 0.666
- relative viability (Alpelisib + Bortezomib; first compound 4 µM): 0.44

Cell Line: NCI-H647
- relative viability (OSI-027 + Decitabine; first compound 0.01 µM): 0.385
- relative viability (OSI-027 + Decitabine; first compound 0.03162 µM): 0.543
- relative viability (OSI-027 + Decitabine; first compound 0.1 µM): 0.397
- relative viability (OSI-027 + Decitabine; first compound 0.3162 µM): 0.248
- relative viability (OSI-027 + Decitabine; first compound 1 µM): 0.211
- relative viability (Vemurafenib + Navitoclax; first compound 0.03162 µM): 1.05
- relative viability (Vemurafenib + Navitoclax; first compound 0.1 µM): 0.913
- relative viability (Vemurafenib + Navitoclax; first compound 1 µM): 1.23
- relative viability (Alpelisib + Vorinostat; first compound 0.04 µM): 0.772
- relative viability (Alpelisib + Vorinostat; first compound 0.1265 µM): 0.608
- relative viability (Alpelisib + Vorinostat; first compound 0.4 µM): 0.613
- relative viability (Alpelisib + Vorinostat; first compound 1.265 µM): 0.263
- relative viability (Alpelisib + Vorinostat; first compound 4 µM): 0.427
- relative viability (Alpelisib + Bortezomib; first compound 0.04 µM): 0.75
- relative viability (Alpelisib + Bortezomib; first compound 0.1265 µM): 1.1
- relative viability (Alpelisib + Bortezomib; first compound 0.4 µM): 1.34
- relative viability (Alpelisib + Bortezomib; first compound 1.265 µM): 0.944
- relative viability (Alpelisib + Bortezomib; first compound 4 µM): 0.922

Cell Line: NCI-H727
- relative viability (OSI-027 + Decitabine; first compound 0.01 µM): 0.808
- relative viability (OSI-027 + Decitabine; first compound 0.03162 µM): 0.778
- relative viability (OSI-027 + Decitabine; first compound 0.1 µM): 0.849
- relative viability (OSI-027 + Decitabine; first compound 0.3162 µM): 0.774
- relative viability (OSI-027 + Decitabine; first compound 1 µM): 0.761
- relative viability (Vemurafenib + Navitoclax; first compound 0.03162 µM): 0.518
- relative viability (Vemurafenib + Navitoclax; first compound 0.1 µM): 0.366
- relative viability (Vemurafenib + Navitoclax; first compound 0.3162 µM): 0.613
- relative viability (Vemurafenib + Navitoclax; first compound 1 µM): 0.438
- relative viability (Alpelisib + Vorinostat; first compound 0.04 µM): 1.1
- relative viability (Alpelisib + Vorinostat; first compound 0.1265 µM): 1.2
- relative viability (Alpelisib + Vorinostat; first compound 0.4 µM): 1.07
- relative viability (Alpelisib + Vorinostat; first compound 1.265 µM): 1.06
- relative viability (Alpelisib + Vorinostat; first compound 4 µM): 0.848
- relative viability (Alpelisib + Bortezomib; first compound 0.04 µM): 0.806
- relative viability (Alpelisib + Bortezomib; first compound 0.1265 µM): 0.693
- relative viability (Alpelisib + Bortezomib; first compound 0.4 µM): 0.988
- relative viability (Alpelisib + Bortezomib; first compound 1.265 µM): 0.759
- relative viability (Alpelisib + Bortezomib; first compound 4 µM): 0.465

Cell Line: NCI-H838
- relative viability (OSI-027 + Decitabine; first compound 0.01 µM): 0.503
- relative viability (OSI-027 + Decitabine; first compound 0.03162 µM): 0.483
- relative viability (OSI-027 + Decitabine; first compound 0.1 µM): 0.403
- relative viability (OSI-027 + Decitabine; first compound 0.3162 µM): 0.378
- relative viability (OSI-027 + Decitabine; first compound 1 µM): 0.337
- relative viability (Vemurafenib + Navitoclax; first compound 0.03162 µM): 1.07
- relative viability (Vemurafenib + Navitoclax; first compound 0.1 µM): 1.21
- relative viability (Vemurafenib + Navitoclax; first compound 1 µM): 1.27
- relative viability (Alpelisib + Vorinostat; first compound 0.04 µM): 0.675
- relative viability (Alpelisib + Vorinostat; first compound 0.1265 µM): 0.697
- relative viability (Alpelisib + Vorinostat; first compound 0.4 µM): 0.72
- relative viability (Alpelisib + Vorinostat; first compound 1.265 µM): 0.642
- relative viability (Alpelisib + Vorinostat; first compound 4 µM): 0.606
- relative viability (Alpelisib + Bortezomib; first compound 0.04 µM): 0.692
- relative viability (Alpelisib + Bortezomib; first compound 0.1265 µM): 0.482
- relative viability (Alpelisib + Bortezomib; first compound 0.4 µM): 0.668
- relative viability (Alpelisib + Bortezomib; first compound 1.265 µM): 0.782
- relative viability (Alpelisib + Bortezomib; first compound 4 µM): 0.487

Cell Line: NCI-H1355
- relative viability (OSI-027 + Decitabine; first compound 0.01 µM): 0.329
- relative viability (OSI-027 + Decitabine; first compound 0.03162 µM): 0.437
- relative viability (OSI-027 + Decitabine; first compound 0.1 µM): 0.356
- relative viability (OSI-027 + Decitabine; first compound 0.3162 µM): 0.376
- relative viability (OSI-027 + Decitabine; first compound 1 µM): 0.243
- relative viability (Vemurafenib + Navitoclax; first compound 0.03162 µM): 0.895
- relative viability (Vemurafenib + Navitoclax; first compound 0.1 µM): 0.96
- relative viability (Vemurafenib + Navitoclax; first compound 0.3162 µM): 0.99
- relative viability (Vemurafenib + Navitoclax; first compound 1 µM): 0.976
- relative viability (Alpelisib + Vorinostat; first compound 0.04 µM): 0.626
- relative viability (Alpelisib + Vorinostat; first compound 0.1265 µM): 0.609
- relative viability (Alpelisib + Vorinostat; first compound 0.4 µM): 0.677
- relative viability (Alpelisib + Vorinostat; first compound 1.265 µM): 0.529
- relative viability (Alpelisib + Vorinostat; first compound 4 µM): 0.398
- relative viability (Alpelisib + Bortezomib; first compound 0.04 µM): 1.15
- relative viability (Alpelisib + Bortezomib; first compound 0.1265 µM): 1.23
- relative viability (Alpelisib + Bortezomib; first compound 0.4 µM): 1.29
- relative viability (Alpelisib + Bortezomib; first compound 1.265 µM): 1.09
- relative viability (Alpelisib + Bortezomib; first compound 4 µM): 0.961

Cell Line: NCI-H1437
- relative viability (OSI-027 + Decitabine; first compound 0.01 µM): 0.499
- relative viability (OSI-027 + Decitabine; first compound 0.03162 µM): 0.614
- relative viability (OSI-027 + Decitabine; first compound 0.1 µM): 0.63
- relative viability (OSI-027 + Decitabine; first compound 0.3162 µM): 0.493
- relative viability (OSI-027 + Decitabine; first compound 1 µM): 0.387
- relative viability (Vemurafenib + Navitoclax; first compound 0.03162 µM): 1.01
- relative viability (Vemurafenib + Navitoclax; first compound 0.1 µM): 1.06
- relative viability (Vemurafenib + Navitoclax; first compound 0.3162 µM): 1.05
- relative viability (Vemurafenib + Navitoclax; first compound 1 µM): 1.09
- relative viability (Alpelisib + Vorinostat; first compound 0.04 µM): 0.886
- relative viability (Alpelisib + Vorinostat; first compound 0.1265 µM): 0.886
- relative viability (Alpelisib + Vorinostat; first compound 0.4 µM): 0.963
- relative viability (Alpelisib + Vorinostat; first compound 1.265 µM): 0.734
- relative viability (Alpelisib + Vorinostat; first compound 4 µM): 0.692
- relative viability (Alpelisib + Bortezomib; first compound 0.04 µM): 0.504
- relative viability (Alpelisib + Bortezomib; first compound 0.1265 µM): 0.515
- relative viability (Alpelisib + Bortezomib; first compound 0.4 µM): 0.497
- relative viability (Alpelisib + Bortezomib; first compound 1.265 µM): 0.49
- relative viability (Alpelisib + Bortezomib; first compound 4 µM): 0.508

Cell Line: NCI-H1650
- relative viability (OSI-027 + Decitabine; first compound 0.01 µM): 0.454
- relative viability (OSI-027 + Decitabine; first compound 0.03162 µM): 0.45
- relative viability (OSI-027 + Decitabine; first compound 0.1 µM): 0.471
- relative viability (OSI-027 + Decitabine; first compound 0.3162 µM): 0.308
- relative viability (OSI-027 + Decitabine; first compound 1 µM): 0.314
- relative viability (Vemurafenib + Navitoclax; first compound 0.03162 µM): 1.12
- relative viability (Vemurafenib + Navitoclax; first compound 0.3162 µM): 1.18
- relative viability (Vemurafenib + Navitoclax; first compound 1 µM): 1.15
- relative viability (Alpelisib + Vorinostat; first compound 0.04 µM): 0.585
- relative viability (Alpelisib + Vorinostat; first compound 0.1265 µM): 0.599
- relative viability (Alpelisib + Vorinostat; first compound 0.4 µM): 0.756
- relative viability (Alpelisib + Vorinostat; first compound 1.265 µM): 0.491
- relative viability (Alpelisib + Vorinostat; first compound 4 µM): 0.368
- relative viability (Alpelisib + Bortezomib; first compound 0.04 µM): 0.201
- relative viability (Alpelisib + Bortezomib; first compound 0.1265 µM): 0.22
- relative viability (Alpelisib + Bortezomib; first compound 0.4 µM): 0.185
- relative viability (Alpelisib + Bortezomib; first compound 1.265 µM): 0.176
- relative viability (Alpelisib + Bortezomib; first compound 4 µM): 0.169

Cell Line: NCI-H1651
- relative viability (OSI-027 + Decitabine; first compound 0.01 µM): 0.629
- relative viability (OSI-027 + Decitabine; first compound 0.03162 µM): 0.553
- relative viability (OSI-027 + Decitabine; first compound 0.1 µM): 0.576
- relative viability (OSI-027 + Decitabine; first compound 0.3162 µM): 0.561
- relative viability (OSI-027 + Decitabine; first compound 1 µM): 0.515
- relative viability (Vemurafenib + Navitoclax; first compound 0.03162 µM): 1.02
- relative viability (Vemurafenib + Navitoclax; first compound 0.1 µM): 0.976
- relative viability (Vemurafenib + Navitoclax; first compound 0.3162 µM): 1.07
- relative viability (Vemurafenib + Navitoclax; first compound 1 µM): 0.93
- relative viability (Alpelisib + Vorinostat; first compound 0.04 µM): 0.534
- relative viability (Alpelisib + Vorinostat; first compound 0.1265 µM): 0.619
- relative viability (Alpelisib + Vorinostat; first compound 0.4 µM): 0.552
- relative viability (Alpelisib + Vorinostat; first compound 1.265 µM): 0.517
- relative viability (Alpelisib + Vorinostat; first compound 4 µM): 0.504
- relative viability (Alpelisib + Bortezomib; first compound 0.04 µM): 0.913
- relative viability (Alpelisib + Bortezomib; first compound 0.1265 µM): 0.921
- relative viability (Alpelisib + Bortezomib; first compound 0.4 µM): 0.913
- relative viability (Alpelisib + Bortezomib; first compound 1.265 µM): 0.886
- relative viability (Alpelisib + Bortezomib; first compound 4 µM): 0.745
